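Where inhibition never reached the appropriate level, the endpoint shown equals the highest concentration tested. Otherwise, values were interpolated linearly from a five-concentration, 48-hour dose response in 96-well plates. GI50 marks 50% less growth. Definition used: TGI = concentration required for complete inhibition of growth.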
How the values were obtained:
Assay in all cases: NCI tumour cell line growth inhibition, 48 h
MCF7 breast = test system: MCF7 breast
SK-MEL-2 melanoma = test system: SK-MEL-2 melanoma
SW-620 colon = test system: SW-620 colon
RPMI-8226 leukemia = test system: RPMI-8226 leukemia
M14 melanoma = test system: M14 melanoma
UACC-62 melanoma = test system: UACC-62 melanoma
HOP-62 NSCLC = test system: HOP-62 NSCLC
OVCAR-8 ovarian = test system: OVCAR-8 ovarian
MALME-3M melanoma = test system: MALME-3M melanoma
HOP-92 NSCLC = test system: HOP-92 NSCLC
MDA-MB-231 breast = test system: MDA-MB-231 breast
SK-MEL-28 melanoma = test system: SK-MEL-28 melanoma
NCI-H226 lung = test system: NCI-H226 lung
CAKI-1 renal = test system: CAKI-1 renal
NCI-H522 lung = test system: NCI-H522 lung
HL-60(TB) leukemia = test system: HL-60(TB) leukemia
SF-539 CNS = test system: SF-539 CNS
RXF 393 renal = test system: RXF 393 renal
786-0 renal = test system: 786-0 renal
MDA-MB-468 breast = test system: MDA-MB-468 breast
TK-10 renal = test system: TK-10 renal
MOLT-4 leukemia = test system: MOLT-4 leukemia
K-562 leukemia = test system: K-562 leukemia
HCC-2998 colon = test system: HCC-2998 colon
U251 CNS = test system: U251 CNS
CCRF-CEM leukemia = test system: CCRF-CEM leukemia
HCT-116 colon = test system: HCT-116 colon
SN12C renal = test system: SN12C renal
A549 NSCLC = test system: A549 NSCLC
NCI-H460 lung = test system: NCI-H460 lung
BT-549 breast = test system: BT-549 breast
ACHN renal = test system: ACHN renal
HT29 colon = test system: HT29 colon
OVCAR-3 ovarian = test system: OVCAR-3 ovarian
COLO 205 colon = test system: COLO 205 colon
OVCAR-5 ovarian = test system: OVCAR-5 ovarian
UACC-257 melanoma = test system: UACC-257 melanoma
A498 renal = test system: A498 renal
NCI/ADR-RES ovarian = test system: NCI/ADR-RES ovarian
OVCAR-4 ovarian = test system: OVCAR-4 ovarian
DU-145 prostate = test system: DU-145 prostate
HCT-15 colon = test system: HCT-15 colon
SNB-19 CNS = test system: SNB-19 CNS
SK-OV-3 ovarian = test system: SK-OV-3 ovarian
SF-268 CNS = test system: SF-268 CNS
UO-31 renal = test system: UO-31 renal
MDA-MB-435 = test system: MDA-MB-435
SF-295 CNS = test system: SF-295 CNS
EKVX NSCLC = test system: EKVX NSCLC
T-47D breast = test system: T-47D breast
SK-MEL-5 melanoma = test system: SK-MEL-5 melanoma
PC-3 prostate = test system: PC-3 prostate
IGROV1 ovarian = test system: IGROV1 ovarian
LOX IMVI melanoma = test system: LOX IMVI melanoma
KM12 colon = test system: KM12 colon
NCI-H23 lung = test system: NCI-H23 lung
HS 578T breast = test system: HS 578T breast

In the case of CN(C)CCn1c2ccccc2c2nc3cc4ccccc4cc3nc21, the GI50 (MCF7 breast) is reported as 1.29 µM, the TGI (MCF7 breast) is reported as 13.1 µM and the GI50 (SK-MEL-2 melanoma) is reported as 8.51 µM. For the same molecule, the TGI (SK-MEL-2 melanoma) was 21.5 µM, the GI50 (SW-620 colon) was 2.08 µM and the TGI (SW-620 colon) was 12.9 µM. The TGI (RPMI-8226 leukemia) was 13 µM, the GI50 (M14 melanoma) was 2.48 µM and the TGI (M14 melanoma) was 11.1 µM. The GI50 (UACC-62 melanoma) was 5.13 µM, the TGI (UACC-62 melanoma) was 18.8 µM and the TGI (HOP-62 NSCLC) was 16.4 µM. It also gave a GI50 (OVCAR-8 ovarian) of 1.47 µM, a TGI (OVCAR-8 ovarian) of 3.54 µM and a GI50 (MALME-3M melanoma) of 2.41 µM. It also gave a TGI (MALME-3M melanoma) of 8.72 µM, a GI50 (HOP-92 NSCLC) of 0.0473 µM and a TGI (HOP-92 NSCLC) of 2.12 µM. For the same molecule, the GI50 (MDA-MB-231 breast) was 2.51 µM, the TGI (MDA-MB-231 breast) was 15.3 µM and the GI50 (SK-MEL-28 melanoma) was 5.72 µM. It also gave a TGI (SK-MEL-28 melanoma) of 18.3 µM, a GI50 (NCI-H226 lung) of 1.89 µM and a TGI (NCI-H226 lung) of 6.59 µM. The GI50 (CAKI-1 renal) was 1.28 µM, the TGI (CAKI-1 renal) was 12.3 µM and the GI50 (NCI-H522 lung) was 2.5 µM. For the same molecule, the TGI (NCI-H522 lung) was 14.5 µM, the GI50 (HL-60(TB) leukemia) was 1.07 µM and the TGI (HL-60(TB) leukemia) was 2.85 µM. It also gave a GI50 (SF-539 CNS) of 3.01 µM, a TGI (SF-539 CNS) of 12.8 µM and a GI50 (RXF 393 renal) of 2.23 µM. It also gave a TGI (RXF 393 renal) of 10.2 µM, a GI50 (786-0 renal) of 3.95 µM and a TGI (786-0 renal) of 16.5 µM. The GI50 (MDA-MB-468 breast) was 1.26 µM, the TGI (MDA-MB-468 breast) was 6.36 µM and the TGI (TK-10 renal) was 22.4 µM. For the same molecule, the GI50 (MOLT-4 leukemia) was 2.76 µM, the TGI (MOLT-4 leukemia) was 12.4 µM and the GI50 (K-562 leukemia) was 1.79 µM. For the same molecule, the TGI (K-562 leukemia) was 5.45 µM, the GI50 (HCC-2998 colon) was 1.29 µM and the TGI (HCC-2998 colon) was 2.66 µM. For the same molecule, the GI50 (U251 CNS) was 2.93 µM, the TGI (U251 CNS) was 14.1 µM and the GI50 (CCRF-CEM leukemia) was 6.37 µM. For the same molecule, the TGI (CCRF-CEM leukemia) was 21.1 µM, the GI50 (HCT-116 colon) was 2.08 µM and the TGI (HCT-116 colon) was 14.1 µM. The GI50 (SN12C renal) was 2 µM, the TGI (SN12C renal) was 15.9 µM and the GI50 (A549 NSCLC) was 1.02 µM. The TGI (A549 NSCLC) was 4.52 µM, the GI50 (NCI-H460 lung) was 1.17 µM and the TGI (NCI-H460 lung) was 14.5 µM. For the same molecule, the GI50 (BT-549 breast) was 4.92 µM, the TGI (BT-549 breast) was 18.5 µM and the GI50 (ACHN renal) was 1.59 µM. It also gave a TGI (ACHN renal) of 11.5 µM, a GI50 (HT29 colon) of 1.41 µM and a TGI (HT29 colon) of 3.8 µM. For the same molecule, the GI50 (OVCAR-3 ovarian) was 4.53 µM, the TGI (OVCAR-3 ovarian) was 17.2 µM and the GI50 (COLO 205 colon) was 2.12 µM. It also gave a TGI (COLO 205 colon) of 10.4 µM, a GI50 (OVCAR-5 ovarian) of 3.73 µM and a TGI (OVCAR-5 ovarian) of 16.8 µM. For the same molecule, the GI50 (UACC-257 melanoma) was 4.37 µM, the TGI (UACC-257 melanoma) was 16.6 µM and the GI50 (A498 renal) was 14.7 µM. For the same molecule, the TGI (A498 renal) was 32 µM, the GI50 (NCI/ADR-RES ovarian) was 2.62 µM and the TGI (NCI/ADR-RES ovarian) was 15.3 µM. The GI50 (OVCAR-4 ovarian) was 5.95 µM, the TGI (OVCAR-4 ovarian) was 22.1 µM and the GI50 (DU-145 prostate) was 2.65 µM. The TGI (DU-145 prostate) was 13.2 µM, the GI50 (HCT-15 colon) was 1.06 µM and the TGI (HCT-15 colon) was 2.47 µM. It also gave a GI50 (SNB-19 CNS) of 5.8 µM, a TGI (SNB-19 CNS) of 18.9 µM and a GI50 (SK-OV-3 ovarian) of 3.98 µM. It also gave a TGI (SK-OV-3 ovarian) of 17.2 µM, a GI50 (SF-268 CNS) of 3.8 µM and a TGI (SF-268 CNS) of 16.4 µM. For the same molecule, the GI50 (UO-31 renal) was 0.335 µM, the TGI (UO-31 renal) was 11.6 µM and the GI50 (MDA-MB-435) was 4.19 µM. For the same molecule, the TGI (MDA-MB-435) was 16.7 µM, the GI50 (SF-295 CNS) was 1.8 µM and the TGI (SF-295 CNS) was 12 µM. It also gave a GI50 (EKVX NSCLC) of 3.36 µM, a TGI (EKVX NSCLC) of 16.2 µM and a GI50 (T-47D breast) of 3.52 µM. For the same molecule, the TGI (T-47D breast) was 19.4 µM, the GI50 (SK-MEL-5 melanoma) was 2.88 µM and the TGI (SK-MEL-5 melanoma) was 11.9 µM. For the same molecule, the GI50 (PC-3 prostate) was 2.44 µM, the TGI (PC-3 prostate) was 13.5 µM and the GI50 (IGROV1 ovarian) was 1.63 µM. It also gave a TGI (IGROV1 ovarian) of 14.2 µM, a GI50 (LOX IMVI melanoma) of 1.16 µM and a TGI (LOX IMVI melanoma) of 2.42 µM. It also gave a GI50 (KM12 colon) of 2.8 µM, a TGI (KM12 colon) of 15.2 µM and a GI50 (NCI-H23 lung) of 2.86 µM. The TGI (NCI-H23 lung) was 14.6 µM, the GI50 (HS 578T breast) was 12.6 µM and the TGI (HS 578T breast) was 39 µM.

From PubChem BioAssay (NCI)
